In US7777070B2, “Acyloxyalkyl carbamate prodrugs of tranexamic acid, methods of synthesis and use” (XenoPort, Inc., priority 2005, dated 2010):
Like-named read-outs stand apart in the source and are kept apart here.

What was measured:
Caco-2 cells [1] = experiment: Caco-2 cellular permeability; settings: ratio of Papp apical to basolateral / basolateral to apical
Method: (§1) For example, passive permeability can be evaluated by examining the flux of a prodrug across a cultured polarized cell monolayer (e.g., Caco-2 cells).
(§2) Caco-2 cells obtained from continuous culture (passage less than 28) were seeded at high density onto Transwell polycarbonate filters. Cells were maintained with DMEM/10% fetal bovine serum, 1 mM nonessential amino acids, and 6 mM L-Gln, 5% CO2/95% O2, at 37° C. until the day of the experiment. Permeability studies were conducted at pH 6.5 apically (in 50 mM MES buffer containing 1 mM CaCl2, 1 mM MgCl2, 150 mM NaCl, 3 mM KCl, 1 mM NaH2PO4, 5 mM glucose) and pH 7.4 basolaterally (in Hanks' balanced salt solution containing 10 mM HEPES) in the presence of efflux pump inhibitors (250 μM MK-571 and 250 μM Verapamil). Inserts were placed in 12 or 24 well plates containing buffer and incubated for 30 min at 37° C. Prodrug (200 μM) was added to the apical or basolateral compartment (donor) and concentrations of prodrug and/or released parent drug in the opposite compartment (receiver) were determined at intervals over 1 hour using LC/MS/MS. Values of apparent permeability (Papp) were calculated using the equation: Papp=Vr(dC/dt)//(ACo) where Vr is the volume of the receiver compartment in mL; dC/dt is the total flux of prodrug and parent drug (μM/sec), determined from the slope of the plot of concentration in the receiver compartment versus time; C0 is the initial concentration of prodrug in μM; and A is the surface area of the membrane in cm^2.

[2] = cited from earlier work
[3] = cited from earlier work; remark: listed apart in the source
[4] = Pharmacokinetics of tranexamic acid after administration of tranexamic acid or prodrug to rats; format: in vivo, Sprague-Dawley rats; settings: for AUC(0-inf) / bioavailability / Cmax / half-life / Tmax / AUC(0-t) / F* (bioavailability of tranexamic acid) / AUCinf / AUCt / T1/2-λ: rat; for bioavailability / F* (bioavailability of tranexamic acid): versus i.v. tranexamic acid AUCinf 22.2 hr·μg/mL; for bioavailability: read-out: F* (bioavailability of tranexamic acid); for half-life: read-out: T1/2-λ (converted)
Method: Tranexamic acid or a tranexamic acid prodrug of the present disclosure was administered as an intravenous bolus injection (i.v.), by oral gavage (p.o.), or by intracolonic (i.c.) administration via an indwelling catheter in the ascending colon to groups of four to six adult male Sprague-Dawley rats (weight approximately 250 g). Animals were fasted overnight before the study and for 4 hours post-dosing and were conscious at the time of the experiment. When administered intravenously, tranexamic acid was administered as a solution in water at a dose equivalent to 16 mg (0.1 mmol) of tranexamic acid per kg body weight. Prodrugs were orally or intracolonically administered as a suspension in 0.5% methyl cellulose in 0.1% Tween 80 at a dose equivalent to 16 mg (0.1 mmol) of tranexamic acid per kg body weight. Blood samples (300 μL) were obtained via a jugular vein cannula at intervals over 8 hours after oral dosing. Blood was quenched immediately using methanol and then was frozen at −80° C. until analyzed.
The following procedure was used to prepared blood samples for analysis:
1. Rat blood (100 μL) was collected at different times into K2EDTA tubes, 300 μL of methanol, and the mixture was vortexed to mix the ingredients.
2. Blank rat blood (90 μL) was quenched with 300 μL of methanol. Then ten μL of a standard stock solution (0.04, 0.2, 1, 5, 25, and 100 μg/mL) were added to the tube individually. Then 20 μL of p-chlorophenylalanine (5 μg/mL in 50% methanol) was added to each tube to make up a final calibration standard (0.004, 0.02, 0.1, 0.5, 2.5, and 10 μg/mL). The samples were vortexed and centrifuged at 14,000 rpm for 20 min.
3. To the quenched blood samples were added 20 μL of p-chlorophenylalanine (5 μg/mL in 50% methanol), the samples were vortexed and centrifuged at 14,000 rpm for 20 min.
4. The supernatant was analyzed by LC/MS/MS.
The following method was used for LC/MS/MS Analysis of the prepared blood samples. An API 4000 or 2000 LC/MS/MS spectrometer equipped with Agilent 1100 binary pumps and a CTC HTS-PAL autosampler were used in the analysis. A ThermoHypersil-BetaSil C18, 100×4.6 mm, 5 μm column was used during the analysis. The mobile phase for the analysis of tranexamic acid and prodrug was (A) 0.1% formic acid in water, and (B) 0.1% formic acid in acetonitrile. The gradient condition was: 2% eluent-B to 95% eluent-B for 2.5 min, then to 98% eluent-B to 4.0 min. At 4.1 min, it was returned to 2% eluent-B and maintained at 2% eluent-B till 6.0 min. The flow rate was 1 mL/min. An ESI source was used on the API 4000. The analysis of tranexamic acid was performed in positive ion mode for and negative ion mode was used for analysis of tranexamic acid prodrugs.
The MRM transition for each analyte was optimized using standard solutions. 20 μL of the sample was injected. Non-compartmental analysis was performed using WinNonlin (v.3.1 Professional Version, Pharsight Corporation, Mountain View, Calif.) on individual animal profiles. Summary statistics on major parameter estimates was performed for Cmax (peak observed concentration following dosing), Tmax (time to maximum concentration is the time at which the peak concentration was observed), AUC(0-t) (area under the serum concentration-time curve from time zero to last collection time, estimated using the log-linear trapezoidal method), AUC(0-∞), (area under the serum concentration time curve from time zero to infinity, estimated using the log-linear trapezoidal method to the last collection time with extrapolation to infinity), and t1/2 (terminal half-life).
The oral or intracolonic bioavailability (F) of tranexamic acid was determined by comparing the area under the tranexamic acid concentration vs. time curve (AUC) following oral or intracolonic administration of tranexamic acid or prodrug with the AUC of the tranexamic acid concentration vs. time curve following intravenous administration of tranexamic acid on a dose normalized basis. […]

Caco-2 cells [5] = system: Caco-2 cells
Method: as §1, §2

[6] = male, Sprague-Dawley, whole blood, po, tranexamic acid in blood, dose equivalent to 16 mg/kg, mean (SD)
[7] = male, Sprague-Dawley, whole blood, tranexamic acid in blood, i.c., dose equivalent to 16 mg/kg, mean (SD)
[8] = tranexamic acid in blood, i.c., dose equivalent to 16 mg/kg, mean (SD)
[9] = tranexamic acid in blood, p.o., dose equivalent to 16 mg/kg, mean (SD)

CCCC(=O)OC(C)OC(=O)NC[C@H]1CC[C@H](C(=O)O)CC1 (relative stereo) [Compound 10, trans-4-{[1-(Butanoyloxy)ethoxycarbonyl]aminomethyl}-Cyclohexanecarboxylic Acid]
Ratio A-B/B-A (Caco-2 cells [1]): 4.9

CCCC(OC(=O)NC[C@H]1CC[C@H](C(=O)O)CC1)OC(=O)C(C)C (relative stereo) [Compound 36, trans-4-{[1-(2-Methylpropanoyloxy)butoxycarbonyl]aminomethyl}-Cyclohexanecarboxylic Acid]
Ratio A-B/B-A (Caco-2 cells [1]): 4.5

CCCCC(=O)OC(OC(=O)NC[C@H]1CC[C@H](C(=O)O)CC1)C(C)C (relative stereo) [Compound 42, trans-4-{[1-(Pentanoyloxy)-2-methylpropoxycarbonyl]aminomethyl}-Cyclohexanecarboxylic Acid]
Ratio A-B/B-A (Caco-2 cells [1]): 2.9

CC(C)C(OC(=O)NC[C@H]1CC[C@H](C(=O)O)CC1)OC(=O)C1CCCCC1 (relative stereo) [Compound 48, trans-4-{[1-(Cyclohexylcarbonyloxy)-2-methylpropoxycarbonyl]aminomethyl}-Cyclohexanecarboxylic Acid]
Ratio A-B/B-A (Caco-2 cells [1]): 3.1

CC(C)C(OC(=O)NC[C@H]1CC[C@H](C(=O)O)CC1)OC(=O)c1ccccc1 (relative stereo) [Compound 49, trans-4-{[1-(Benzoyloxy)-2-methylpropoxycarbonyl]aminomethyl}-Cyclohexanecarboxylic Acid]
Ratio A-B/B-A (Caco-2 cells [1]): 2.9

CCOC(=O)OC(C)OC(=O)[C@H]1CC[C@H](CN)CC1 (relative stereo) [Kabi 2161, 1-(ethoxycarbonyl)oxyethyl trans-4-(aminomethyl)-cyclohexanecarboxylate]
oral bioavailability of tranexamic acid from prodrug ([2]; human patients, oral): markedly improved | effect on menstrual blood loss ([3]; women suffering from idiopathic menorrhagia): effective in reducing menstrual blood loss

CC(C)CC(=O)OC(C)OC(=O)NC[C@H]1CC[C@H](C(=O)O)CC1 (single isomer, unassigned) [Compound 19, trans-4-{[1-(3-Methylbutanoyloxy)ethoxycarbonyl]aminomethyl}-Cyclohexanecarboxylic Acid]
Ratio A-B/B-A (Caco-2 cells [1]): 5.2

CC(OC(=O)NC[C@H]1CC[C@H](C(=O)O)CC1)OC(=O)c1ccccc1 (single isomer, unassigned) [Compound 23, trans-4-{[1-(Benzoyloxy)ethoxycarbonyl]aminomethyl}-Cyclohexanecarboxylic Acid]
Ratio A-B/B-A (Caco-2 cells [1]): 4.5

CC(C)C(=O)OC(OC(=O)NC[C@H]1CC[C@H](C(=O)O)CC1)C(C)C (single isomer, unassigned) [Compound 44, trans-4-{[1-(2-Methylpropanoyloxy)-2-methylpropoxycarbonyl]aminomethyl}-Cyclohexanecarboxylic Acid]
Ratio A-B/B-A (Caco-2 cells [1]): 2.2

NC[C@H]1CC[C@H](C(=O)O)CC1 [Compound 1, trans-4-(aminomethyl)-cyclohexanecarboxylic acid, reference compound]
AUC(0-inf) ([4]; male, Sprague-Dawley, whole blood, iv, intravenously administered tranexamic acid, 16 mg/kg): 22200 ng·h/mL | bioavailability ([4]; male, Sprague-Dawley, whole blood, other: intracolonic, 16 mg/kg, i.c., mean (SD)): 5% | bioavailability ([4]; male, Sprague-Dawley, whole blood, po, 16 mg/kg, p.o., mean (SD)): 37% | Cmax ([4]; male, Sprague-Dawley, whole blood, po, tranexamic acid in blood, p.o., dose equivalent to 16 mg tranexamic acid per kg, mean (SD), read-out: Cmax): 2060 ng/mL | half-life ([4]; male, Sprague-Dawley, whole blood, po, tranexamic acid in blood, p.o., dose equivalent to 16 mg/kg, mean (SD)): 1.9 h | Tmax ([4]; male, Sprague-Dawley, whole blood, po, tranexamic acid in blood, p.o., dose equivalent to 16 mg/kg, mean (SD), read-out: Tmax): 1.1 h | AUC(0-inf) [4, 6]: 7800 ng·h/mL | AUC(0-t) [4, 6]: 7300 ng·h/mL | Cmax ([4]; male, Sprague-Dawley, whole blood, tranexamic acid in blood, i.c. (intracolonic), dose equivalent to 16 mg/kg, mean (SD), read-out: Cmax): 220 ng/mL | AUC(0-inf) [4, 7]: 800 ng·h/mL | AUC(0-t) [4, 7]: 600 ng·h/mL | half-life [4, 7]: 1.7 h | Tmax ([4]; male, Sprague-Dawley, whole blood, tranexamic acid in blood, i.c., dose equivalent to 16 mg/kg, mean (SD), read-out: Tmax): 3.1 h | absorption following rectal administration ([2]; rectal administration in humans (Almer et al.)): poorly absorbed | oral bioavailability ([2]; tranexamic acid, oral): ~30% | terminal elimination half-life ([2]; tranexamic acid): ~2 h | reduction of menstrual blood loss ([3]; women with menorrhagia): ~50% | Ratio A-B/B-A (Caco-2 cells [1]): 1.3

CC(C)C(=O)OCOC(=O)NC[C@H]1CC[C@H](C(=O)O)CC1 [Compound 4, trans-4-{[(2-Methylpropanoyloxy)methoxycarbonyl]aminomethyl}-Cyclohexanecarboxylic Acid]
Ratio A-B/B-A (Caco-2 cells [1]): 7.7

O=C(NC[C@H]1CC[C@H](C(=O)O)CC1)OCOC(=O)c1ccccc1 [Compound 7, trans-4-{[(Benzoyloxy)methoxycarbonyl]aminomethyl}-Cyclohexanecarboxylic Acid]
Ratio A-B/B-A (Caco-2 cells [1]): 4.2

CC(OC(=O)NC[C@H]1CC[C@H](C(=O)O)CC1)OC(=O)C(C)C (stereo partly drawn) [Compound 13, trans-4-{[1-(2-Methylpropanoyloxy)ethoxycarbonyl]-aminomethyl}-Cyclohexanecarboxylic Acid]
F* (bioavailability of tranexamic acid) ([4]; i.c., mean (SD)): 98 (10) % | levels of prodrug following oral gavage administration ([4]; intact prodrug in blood, oral gavage, rat (FIG. 2)): below the level of detection | F* (bioavailability of tranexamic acid) ([4]; p.o., mean (SD)): 73 (9) % | Cmax ([4]; tranexamic acid in blood, i.c. (intracolonic), dose equivalent to 16 mg/kg, mean (SD)): 7.82 (5.2) μg/mL | AUCinf [4, 8]: 21.8 µg·h/mL | AUCt [4, 8]: 21.5 (2.3) hr · μg/mL | T1/2-λ [4, 8]: 4.2 (0.8) h | Tmax [4, 8]: 0.5 (0.1) h | Cmax ([4]; tranexamic acid in blood, p.o., dose equivalent to 16 mg tranexamic acid per kg, mean (SD)): 5.64 (0.58) μg/mL | AUCinf [4, 9]: 17.1 (2.0) hr · μg/mL | AUCt [4, 9]: 15.7 (2.0) hr · μg/mL | T1/2-λ [4, 9]: 2.2 (0.2) h | Tmax [4, 9]: 0.8 (0.3) h | Ratio A-B/B-A (Caco-2 cells [1]): 4.8

CC(OC(=O)NC[C@H]1CC[C@H](C(=O)[O-])CC1)OC(=O)C(C)C.[Na+] (stereo partly drawn) [Compound 14, Sodium trans-4-{[1-(2-Methylpropanoyloxy)ethoxycarbonyl]-aminomethyl}-Cyclohexanecarboxylate]
Ratio A-B/B-A (Caco-2 cells [5]): 3.4

CC(C)C(=O)O[C@H](C)OC(=O)NC[C@H]1CC[C@H](C(=O)O)CC1 [Compound 15, (+)-trans-4-({[(S)-1-(2-Methylpropanoyloxy)ethoxy]carbonylamino}methyl)-Cyclohexanecarboxylic Acid]
Ratio A-B/B-A (Caco-2 cells [1]): 6.1

CC(C)C(=O)O[C@@H](C)OC(=O)NC[C@H]1CC[C@H](C(=O)O)CC1 [Compound 17, (−)-trans-4-({[(1R)-1-(2-Methylpropanoyloxy)ethoxy]carbonylamino}methyl)-Cyclohexanecarboxylic Acid]
Ratio A-B/B-A (Caco-2 cells [1]): 4.0
